According to patent US4206215A, “Antimicrobial bis-[4-(substituted-amino)-1-pyridinium]alkanes” (Sterling Drug Inc., priority 1977, dated 1980):

Columns and labels:
E. coli Vogel = assay: In vitro antibacterial activity, MIC (modified Autotiter method); assay type: cell-based, Escherichia coli; details: Escherichia coli, 20 h, 18-20 hours at 37° C.; read-out: MIC E. coli Vogel
Procedure: (§1) The antibacterial and antifungal activity of representative examples of the compounds of Formula I was determined using a modification of the Autotiter method described by Goss, et al. Applied Microbiology 16 (9) 1,414-1,416 (1968) in which a 1,000 mcg./ml. solution of the test compound is prepared. To the first cup of the Autotray is added 0.1 ml. of the test solution. Activation of the Autotiter initiates a sequence of operations by which 0.05 ml. of the test compound solution is withdrawn from the cup by a Microtiter transfer loop and diluted in 0.05 ml. of sterile water. Following this operation, 0.05 ml. of inoculated double-strength semisynthetic medium (glucose) is added automatically to each cup. The overall operation results in final drug concentrations ranging from 500 to 0.06 mcg./ml. in twofold decrements. […] The compounds were thus tested as solutions against a variety of gram positive and gram negative bacteria including Staphylococcus aureus, Proteus mirabilis, Escherichia coli, Klebsiella pneumoniae, Pseudomonas aeruginosa, Streptococcus pyogenes, and against such fungi as Aspergillus niger, Candida albicans and Trichophyton mentagrophytes.

E. coli AB1932-1 = assay: as above; assay type: cell-based, Escherichia coli; details: Escherichia coli, AB19321, 20 h, 18-20 hours at 37° C.; read-out: MIC E. coli AB1932-1
Procedure: as §1

E. coli 100/B22 = assay: as above; assay type: cell-based, Escherichia coli; details: Escherichia coli, 100/B22, 20 h, 18-20 hours at 37° C.; read-out: MIC E. coli 100/B22
Procedure: as §1

P. mirab. MGH-1 = assay: as above; assay type: cell-based, Proteus mirabilis; details: Proteus mirabilis, 20 h, 18-20 hours at 37° C.; read-out: MIC P. mirab. MGH-1
Procedure: as §1

Ps. aerug. MGH-2 = assay: as above; assay type: cell-based, Pseudomonas aeruginosa; details: Pseudomonas aeruginosa, 20 h, 18-20 hours at 37° C.; read-out: MIC Ps. aerug. MGH-2
Procedure: as §1

A. niger 16404 = assay: In vitro antifungal activity, MIC (modified Autotiter method); assay type: cell-based, Aspergillus niger; details: Aspergillus niger, 16404, 20 h, 18-20 hours at 37° C.; read-out: MIC A. niger 16404
Procedure: as §1

C. albicans Wisc. = assay: as above; assay type: cell-based, Candida albicans; details: Candida albicans, 20 h, 18-20 hours at 37° C.; read-out: MIC C. albicans Wisc.
Procedure: as §1

C. albicans 10231 = assay: as above; assay type: cell-based, Candida albicans; details: Candida albicans, 10231, 20 h, 18-20 hours at 37° C.; read-out: MIC C. albicans 10231
Procedure: as §1

S. Aureus Smith = assay: In vitro antibacterial activity, MIC (modified Autotiter method); assay type: cell-based, Staphylococcus aureus; details: Staphylococcus aureus, 20 h, 18-20 hours at 37° C.; read-out: MIC S. Aureus Smith
Procedure: as §1

S. pyogen. C203 = assay: as above; assay type: cell-based, Streptococcus pyogenes; details: Streptococcus pyogenes, 20 h, 18-20 hours at 37° C.; read-out: MIC S. pyogen. C203
Procedure: as §1

K. pneum. 39645 = assay: as above; assay type: cell-based, Klebsiella pneumoniae; details: Klebsiella pneumoniae, 20 h, 18-20 hours at 37° C.; read-out: MIC K. pneum. 39645
Procedure: as §1

T. menta. 9129 = assay: In vitro antifungal activity, MIC (modified Autotiter method); assay type: cell-based, Trichophyton mentagrophytes; details: Trichophyton mentagrophytes, 20 h, 18-20 hours at 37° C.; read-out: MIC T. menta. 9129
Procedure: as §1

Compound | MIC (E. coli Vogel) | MIC (E. coli AB1932-1) | MIC (E. coli 100/B22) | MIC (P. mirab. MGH-1) | MIC (Ps. aerug. MGH-2) | MIC (A. niger 16404) | MIC (C. albicans Wisc.) | MIC (C. albicans 10231) | MIC (S. Aureus Smith) | MIC (S. pyogen. C203) | MIC (K. pneum. 39645) | MIC (T. menta. 9129)
Clc1ccc(Nc2cc[n+](CCCCC[n+]3ccc(Nc4ccc(Cl)cc4)cc3)cc2)cc1 [Example 80, 1,5-bis-[4-(p-chlorophenylamino)-1-pyridinium]pentane dibromide] | 125 µg/mL | 31.3 µg/mL | 125 µg/mL | > 125 µg/mL | > 125 µg/mL | 62.5 µg/mL | 62.5 µg/mL | 62.5 µg/mL | 7.8 µg/mL | 1.95 µg/mL | > 125 µg/mL | 15.6 µg/mL
CCCNc1cc[n+](CCCCCCCCCC[n+]2ccc(NCCC)cc2)cc1 [Example 30, 1,10-bis-[4-(propylamino)-1-pyridinium]decane dibromide] | > 62.5 µg/mL | > 62.5 µg/mL | > 62.5 µg/mL | > 250 µg/mL | > 62.5 µg/mL | 31.3 µg/mL | 7.8 µg/mL | 15.6 µg/mL | 1.95 µg/mL | 3.9 µg/mL | > 62.5 µg/mL | 1 µg/mL
CCCCCCCCNc1cc[n+](CCCCCCC[n+]2ccc(NCCCCCCCC)cc2)cc1 [Example 43, 1,7-bis-[4-(octylamino)-1-pyridinium]heptane dibromide] | 1.95 µg/mL | 1 µg/mL | 1 µg/mL | 7.8 µg/mL | 31.3 µg/mL | 7.8 µg/mL | 1.95 µg/mL | 1.95 µg/mL | 0.5 µg/mL | 1 µg/mL | 1 µg/mL | 1 µg/mL
CCCCCCCCCNc1cc[n+](CCCCCCCCCCCC[n+]2ccc(NCCCCCCCCC)cc2)cc1 [Example 52, 1,12-bis-[4-(nonylamino)1-pyridinium]dodecane dibromide] | 3.9 µg/mL | 7.8 µg/mL | 3.9 µg/mL | 3.9 µg/mL | 3.9 µg/mL | 15.6 µg/mL | 7.8 µg/mL | 7.8 µg/mL | 1.95 µg/mL | 1.95 µg/mL | 3.9 µg/mL | 1.95 µg/mL
c1c[n+](CCCCCCCC[n+]2ccc(NC3CCCCC3)cc2)ccc1NC1CCCCC1 [Example 38, 1,8-bis-[4-(cyclohexylamino)-1-pyridinium]octane dibromide] | 62.5 µg/mL | 31.3 µg/mL | 62.5 µg/mL | > 125 µg/mL | 250 µg/mL | 15.6 µg/mL | 31.3 µg/mL | 31.3 µg/mL | 3.9 µg/mL | 0.93 µg/mL | > 125 µg/mL | 3.9 µg/mL
Nc1cc[n+](CCCCCCCC[n+]2ccc(N)cc2)cc1 [I, 1,8-bis-(4-amino-1-pyridinium)octane dibromide, reference compound] | 125 µg/mL | 125 µg/mL | 250 µg/mL | > 500 µg/mL | > 500 µg/mL | 125 µg/mL | 125 µg/mL | 125 µg/mL | 31.3 µg/mL | 31.3 µg/mL | > 500 µg/mL | 125 µg/mL
CCCCCCCCCCNc1cc[n+](CCCCCCCCCCCC[n+]2ccc(NCCCCCCCCCC)cc2)cc1 [Example 69, 1,12-bis-[4-(decylamino)-1-pyridinium]dodecane dibromide] | 7.8 µg/mL | 31.3 µg/mL | 15.6 µg/mL | 15.6 µg/mL | 15.6 µg/mL | 15.6 µg/mL | 15.6 µg/mL | 15.6 µg/mL | 1.95 µg/mL | 3.9 µg/mL | 31.3 µg/mL | 3.9 µg/mL
